The subject of test [1] is human glycine N-methyltransferase promoter. The experiment in a line: GNMT promoter-driven luciferase reporter assay in H7GPL cells. In kind it is cell-based. Particulars: for fold induction at 10 µM: Homo sapiens, H7GPL, read-out: Fold change (10 uM). Here is the method:
Please refer to FIG. 1, which illustrates the configuration of pLV-GNMTpLuc plasmid. HEK293T cells were cotransfected with a packaging plasmid-pCMV-ΔR8.91, a VSV-G envelope expressing plasmid-pMD.G and pLV-GNMTpLuc using TurboFect™ Reagent (Fermentas, Hanover, Md.). One resultant colony was picked, amplified and denominated as H7GPL (HuH-7-GNMT promoter-Luciferase). The relative luciferase activity (RLA) was calculated as “activity of luciferase/intensity of alamarBlue fluorescence”. The fold changes in GNMT promoter induction was calculated as “RLA of drug/RLA of solvent control”. Compounds with the ability to activate human glycine N-methyltransferase promoter in H7GPL could serve as a citeria for screening drugs.
Please refer to FIG. 2, which illustrates the luciferase activity in a screening platform. Previously, 26 FDA approved drugs were identified that can reverse the gene expression signature of HCC. We obtained 26 drugs. H7GPL cells were seeded in 96-well plates for 18 hours and then were treated with these 26 drugs and solvent control for an extra 24 hours.
In the initial screening, when (individual luciferase activity−average luciferase activity of all hits)/standardized Z scores of all samples is greater than 1.5, it means the compound has the capability of enhancing the GNMT reporter activity.
Huh7 cells were infected with this virus and selected with puromycin-containing medium. One resultant colony was picked, amplified and denominated as H7GPL (Huh7 GNMT promoter-luciferase). The cell lysate of H7GPL was used for luciferase activity measurement using the Luciferase Assay System (Promega).
For primary screening, H7GPL cells seeded in 96-well plates were treated for 24 h with individual drugs at a concentration of 2 mg/mL for crude extracts and 0.2 mg/mL for pure compounds and then were lysed for the luciferase activity assay using the Luciferase Assay System (Promega, Madison, Wis., USA).
Reporter activity for each well was transformed to the Z score by using data from all assay plates.
Then, hits of primary screening were sorted by Z score ≥1.5 and used for secondary screening.
And then placed in the above-described culture plate H7GPL cell replication, and after the disposal of seized goods in those 20 hours, the company added AbD serotec Reagent (Oxford, UK), further cultured for 4 hours.
The cytotoxicity was measured according to the manufacturer's recommendation for assessing the reporter gene.
Drugs that induced GNMT promoter activity ≥1.5-fold were considered as hits of the secondary screen with the capability of enhancing the activity of GNMT.
Background: Reporter assays use an easily measured gene product as a stand-in for the process of interest.

A further test relates to c-Myc protein. The test is described as follows: Protein degradation inhibitors on PGG-induced c-Myc degradation. Particulars: co-treatment with PGG, Huh7 cells, FIG. 45. In kind it is cell-based, human.
Where [2] appears, read: GNMT promoter induction, RLA of drug/RLA of solvent control, 10 uM, 24 hours.

Like-named read-outs stand apart in the source and are kept apart here. Residues, ends and D or L forms follow the SMILES beside them. *: point of attachment. Cbz = O=C(OCc1ccccc1)*; CH2F = FC*

As to `O=c1cc(-c2ccc(O)cc2)oc2cc(O)cc(O)c12` [Apigenin], in test [1] (H7GPL luciferase), the “GNMT promoter activity (in words)” value is listed as “remarkably induced GNMT promoter activity”. Moreover, the fold induction at 10 µM in test [1] (setting [2]) was found to be 1.8.
Take `CC(C)COCC(CN(Cc1ccccc1)c1ccccc1)N1CCCC1` (centres unmarked) [Bepridil]: the fold induction at 10 µM in test [1] (setting [2]) was 0.7.
Consider `CC[C@@]1(O)C(=O)OCc2c1cc1n(c2=O)Cc2cc3ccccc3nc2-1` [Camptothecin], for which the fold induction at 10 µM in test [1] (setting [2]) was found to be 0.4.
`CN(C)CCCN1c2ccccc2Sc2ccc(Cl)cc21` [Chlorpromazine]: the fold induction at 10 µM in test [1] (setting [2]) came to 0.7.
As for `Cc1cc(C2CCCCC2)n(O)c(=O)c1` [Ciclopirox], the “GNMT promoter activity (in words)” value in test [1] (H7GPL luciferase) is on record as “remarkably induced GNMT promoter activity”. Besides, in test [1] (setting [2]), the fold induction at 10 µM came out at 8.2.
Consider `Clc1ccc(C(OCCN2CCCCC2)c2ccccc2)cc1` (centres unmarked) [Cloperastine], for which the fold induction at 10 µM in test [1] (24 h) came out at 1.
As for `COc1ccccc1N1CCN(CCCCNC(=O)c2ccc3ccccc3c2)CC1.Cl.Cl` [DO 897/99], the “Fold change (10 uM)” value in test [1] (setting [2]) was found to be 0.9.
Turning to `OCCN(CCO)c1nc(N2CCCCC2)c2nc(N(CCO)CCO)nc(N3CCCCC3)c2n1` [Dipyridamole], the fold induction at 10 µM in test [1] (setting [2]) came to 0.9.
`O=C(O)CN(CCN(CC(=O)O)CC(=O)O)CC(=O)O` [EDTA, ethylenediamine-tetraacetic acid]: in the test on c-Myc protein, the “prevention of PGG-induced c-Myc degradation / inhibition of c-Myc protein expression” value is “can not prevent”.
As for `O=C1Nc2ccc3ncsc3c2/C1=C/Nc1ccc(S(=O)(=O)Nc2ccccn2)cc1` [GW-8510], the “Fold change (10 uM)” value in test [1] (setting [2]) was 0.4.
Regarding `O=c1cc(-c2ccc(O)c(O)c2)oc2cc(O)cc(O)c12` [Luteolin], the “GNMT promoter activity (in words)” value in test [1] (H7GPL luciferase) was “remarkably induced GNMT promoter activity”. Further, the fold induction at 10 µM in test [1] (setting [2]) was 1.9.
For the molecule `CC(C)C[C@@H](C=O)NC(=O)[C@H](CC(C)C)NC(=O)[C@H](CC(C)C)NC(=O)OCc1ccccc1` [MG132, Z-LEU-LEU-LEU-CHO] (Cbz-Leu-Leu-Leu-aldehyde), the “prevention of PGG-induced c-Myc degradation / inhibition of c-Myc protein expression” value in the test with c-Myc protein is given as “can not prevent”.
As to `COC(=O)Nc1nc2ccc(C(=O)c3ccccc3)cc2[nH]1` [Mebendazole], the fold induction at 10 µM in test [1] (setting [2]) came to 1.
On to `OC(c1cc(C(F)(F)F)nc2c(C(F)(F)F)cccc12)C1CCCCN1` (centres unmarked) [Mefloquine], for which the fold induction at 10 µM in test [1] (setting [2]) came out at 0.3.
With `Cl.N` [NH4Cl], the “prevention of PGG-induced c-Myc degradation / inhibition of c-Myc protein expression” value in the test with c-Myc protein is “can not prevent”.
For `CC(COc1ccccc1)N(CCCl)Cc1ccccc1` (centres unmarked) [Phenoxybenzamine], the fold induction at 10 µM in test [1] (24 h) worked out at 0.7.
Regarding `CN1CCN(CCCN2c3ccccc3Sc3ccc(Cl)cc32)CC1` [Prochlorperazine], the fold induction at 10 µM in test [1] (setting [2]) stood at 0.7.
Turning to `Cc1cc(/C=C/c2ccc3cc(N(C)C)ccc3[n+]2C)c(C)n1-c1ccccc1` [Pyrvinium], the fold induction at 10 µM in test [1] (setting [2]) was 0.5.
As for `C[n+]1cc2c3c(ccc2c2ccc4cc5c(cc4c21)OCO5)OCO3` [Sanguinarine], the fold induction at 10 µM in test [1] (24 h) came out at 0.1.
`Clc1ccc(CSC(Cn2ccnc2)c2ccc(Cl)cc2Cl)cc1` (centres unmarked) [Sulconazole]: the fold induction at 10 µM in test [1] (setting [2]) came out at 0.5.
In the case of `C=CCNC1=C2C[C@@H](C)C[C@H](OC)[C@H](O)[C@@H](C)/C=C(\C)[C@H](OC(N)=O)[C@@H](OC)/C=C\C=C(/C)C(=O)NC(=CC1=O)C2=O` [Tanespimycin], in test [1] (setting [2]), the fold induction at 10 µM was 0.5.
For `CSc1ccc2c(c1)N(CCC1CCCCN1C)c1ccccc1S2` (centres unmarked) [Thioridazine], in test [1] (setting [2]), the fold induction at 10 µM came out at 0.1.
On the same count and under the same terms, the figure for `CN1CCN(CCCN2c3ccccc3Sc3ccc(C(F)(F)F)cc32)CC1` [Trifluoperazine] is 0.1.
With `Cc1cc2cc3c(C)cc(=O)oc3c(C)c2o1` [Trioxysalen], the fold induction at 10 µM in test [1] (24 h) was found to be 1.2.
Turning to `COC(=O)C[C@H](NC(=O)[C@H](C)NC(=O)[C@@H](NC(=O)OCc1ccccc1)C(C)C)C(=O)CF` [Z-VAD-FMK, N-Benzyloxycarbonyl-Val-Ala-Asp (Ome)fluoromethyl ketone] (Cbz-Val-Ala-Asp(OMe)-CH2F), in the test with c-Myc protein, the “prevention of PGG-induced c-Myc degradation / inhibition of c-Myc protein expression” value is reported as “can prevent”.
Turning to `CCCC[C@@H](C=O)NC(=O)[C@H](CC(C)C)NC(=O)OCc1ccccc1` [calpeptin, N-Benzyloxy-carbonyl-L-leucyl-L-norleucinal], the “prevention of PGG-induced c-Myc degradation / inhibition of c-Myc protein expression” value in the test on c-Myc protein is recorded as “can not prevent”.
`CCN(CC)CCCC(C)Nc1ccnc2cc(Cl)ccc12` (centres unmarked) [chloroquine diphosphate]: the “prevention of PGG-induced c-Myc degradation / inhibition of c-Myc protein expression” value in the test with c-Myc protein is reported as “can not prevent”.
Take `Oc1c(I)cc(Cl)c2cccnc12` [clioquinol(quinoinol), clioquinol]: the “GNMT promoter activity (in words)” value in test [1] (H7GPL luciferase) is “remarkably induced GNMT promoter activity”. The fold induction at 10 µM in test [1] (setting [2]) was determined as 3.8.
With `O=C(O)c1cc(O)c(O)c(O)c1` [gallic acid], the “GNMT promoter activity (in words)” value in test [1] (H7GPL luciferase) is listed as “none of which can either affect the activity of GNMT promoter”.
As for `O=C(CCCCCCC(=O)Nc1ccccc1)NO` [suberoylanilide hydroxamic acid], in test [1] (H7GPL luciferase), the “GNMT promoter activity (in words)” value is given as “remarkably induced GNMT promoter activity” and the “dose dependence of GNMT promoter activity” value is on record as “dose-dependently”. In addition, in test [1] (H7GPL luciferase, listed as SAHA), the “GNMT promoter activity (in words)” value was “potent GNMT inducer”. Also, the fold induction at 10 µM in test [1] (24 h) was determined as 18.6.
Regarding `CC(/C=C/C(=O)NO)=C\[C@@H](C)C(=O)c1ccc(N(C)C)cc1` [trichostatin A], the “Fold change (0.2 uM)” value in test [1] (GNMT promoter induction, 0.2 uM, 24 hours) stood at 3.4 with Fold. The “GNMT promoter activity (in words)” value in test [1] (H7GPL luciferase) is reported as “remarkably induced GNMT promoter activity”.
As to `CC1=C(CO)C(=O)O[C@@H]([C@@H](C)[C@H]2CC[C@H]3[C@@H]4C[C@H]5O[C@]56[C@@H](O)C=CC(=O)[C@]6(C)[C@H]4CC[C@]23C)C1` [withaferin A], the “Fold change (10 uM)” value in test [1] (setting [2]) was 0.
The same measure, in the same setting: as for Tyloxapol, the figure is 0.6.

The record behind these values is US11000535B2, “Anticancer composition and use thereof” (KAOHSIUNG MEDICAL UNIVERSITY, priority 2015, dated 2021).
